According to ChEMBL document CHEMBL4177656, “Improving metabolic stability with deuterium: The discovery of GPU-028, a potent free fatty acid receptor 4 agonists” (Bioorg Med Chem, 2017):
Activity calls are given as the source filed them. The calls are words filed in the database; no cut-off is given here.

How the values were obtained:
[1] = molecular target: T1, Free fatty acid receptor 4 (Homo sapiens, UniProt Q5NUL3); assay: Agonist activity at human FFAR4 expressed in CHO cells assessed as beta-arrestin recruitment after 90 mins by luminescence assay; format: functional, cell-based
T1 sequence (Q5NUL3 whole entry): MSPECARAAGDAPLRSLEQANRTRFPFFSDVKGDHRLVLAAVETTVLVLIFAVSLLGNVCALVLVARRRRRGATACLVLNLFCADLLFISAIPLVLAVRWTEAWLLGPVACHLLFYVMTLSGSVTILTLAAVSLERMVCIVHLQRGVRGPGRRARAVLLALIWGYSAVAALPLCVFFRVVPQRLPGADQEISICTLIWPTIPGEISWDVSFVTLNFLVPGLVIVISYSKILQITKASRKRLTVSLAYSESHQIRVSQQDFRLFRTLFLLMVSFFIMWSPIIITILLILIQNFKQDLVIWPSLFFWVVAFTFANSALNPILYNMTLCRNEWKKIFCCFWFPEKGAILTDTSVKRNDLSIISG

[2] = Clearance in Sprague-Dawley rat at 10 mg/kg, po administered as single dose by LC-PDA-MS/MS analysis; format: ADME, organism-based; conditions: in vivo
[3] = Cmax in Sprague-Dawley rat at 10 mg/kg, po administered as single dose by LC-PDA-MS/MS analysis; format: ADME, organism-based; parameters: dose 10 mg/kg, route oral; conditions: in vivo
[4] = AUC (0 to 24 hrs) in Sprague-Dawley rat at 10 mg/kg, po administered as single dose by LC-PDA-MS/MS analysis; format: ADME, organism-based; parameters: time < 24 hr, dose 10 mg/kg, route oral; conditions: in vivo
[5] = Half life in Sprague-Dawley rat at 10 mg/kg, po administered as single dose by LC-PDA-MS/MS analysis; format: ADME, organism-based; conditions: in vivo
Mus musculus [6] = assay: Toxicity in C57BL/6 DIO mouse model at 30 mg/kg administered via gavage twice daily for 28 days; format: organism-based; conditions: in vivo, po, 672 h
[7] = Plasma clearance in rat; format: ADME, organism-based
Mus musculus [8] = assay: Hypoglycemic activity in C57BL/6 DIO mouse model assessed as decrease in blood glucose AUC (0 to 120 mins) at 30 mg/kg administered via gavage twice daily for 28 days measured before glucose challenge by OGTT; format: functional, organism-based; conditions: tested as the 2H-labelled form
Mus musculus [9] = assay: Hypoglycemic activity in C57BL/6 DIO mouse model assessed as decrease in blood glucose AUC (0 to 120 mins) at 30 mg/kg administered via gavage twice daily for 28 days measured on day 29 by OGTT; format: functional, organism-based; conditions: tested as the 2H-labelled form
Mus musculus [10] = assay: Hypoglycemic activity in C57BL/6 DIO mouse model assessed as fasting glucose levels at 30 mg/kg administered via gavage twice daily for 28 days measured on day 29 by OGTT; format: functional, organism-based; conditions: tested as the 2H-labelled form

| Structure (SMILES) | EC50 [1] [µM] | CL/F [2] [mL/min/kg] | Cmax [3] [ng/mL] | AUC(0-t) at 24 h [4] [ng·h/mL] | half-life [5] [h] | Activity (Mus musculus [6]) | clearance [7] [mL/min/kg] | Activity (Mus musculus [8]) | Activity (Mus musculus [9]) | Activity (Mus musculus [10]) |
| --- | --- | --- | --- | --- | --- | --- | --- | --- | --- | --- |
| Cc1cc(OCCCS(C)(=O)=O)cc(C)c1-c1cccc(COc2ccc3c(c2)OC[C@H]3CC(=O)O)c1 | > 10 |  |  |  |  |  |  |  |  |  |
| [2H]C([2H])(Cc1ccc(OCc2cc(F)ccc2-c2ccc(C)cc2)cc1)C(=O)O |  | 16.2 | 2040 | 6280 | 1.66 | Non-Toxic |  |  |  |  |
| Cc1ccc(-c2ccc(F)cc2COc2ccc(CCC(=O)O)cc2)cc1 |  | 61.2 | 969 | 1370 | 0.79 |  | 61.2 | inactive | Active | Active |
